{"source": "patent US20100105655A1", "about": "“NOVEL COMPOUNDS 515” (ASTRAZENECA AB, priority 2008, published 2010)", "key": {"[1]": {"biological_target": "T1, human IGF1R (Homo sapiens, UniProt P08069)", "T1 construct": "expressed in transfected cells; host or cells: R+ cells (R- mouse fibroblasts transfected with human IGF1R)", "T1 sequence (P08069 31-1367)": "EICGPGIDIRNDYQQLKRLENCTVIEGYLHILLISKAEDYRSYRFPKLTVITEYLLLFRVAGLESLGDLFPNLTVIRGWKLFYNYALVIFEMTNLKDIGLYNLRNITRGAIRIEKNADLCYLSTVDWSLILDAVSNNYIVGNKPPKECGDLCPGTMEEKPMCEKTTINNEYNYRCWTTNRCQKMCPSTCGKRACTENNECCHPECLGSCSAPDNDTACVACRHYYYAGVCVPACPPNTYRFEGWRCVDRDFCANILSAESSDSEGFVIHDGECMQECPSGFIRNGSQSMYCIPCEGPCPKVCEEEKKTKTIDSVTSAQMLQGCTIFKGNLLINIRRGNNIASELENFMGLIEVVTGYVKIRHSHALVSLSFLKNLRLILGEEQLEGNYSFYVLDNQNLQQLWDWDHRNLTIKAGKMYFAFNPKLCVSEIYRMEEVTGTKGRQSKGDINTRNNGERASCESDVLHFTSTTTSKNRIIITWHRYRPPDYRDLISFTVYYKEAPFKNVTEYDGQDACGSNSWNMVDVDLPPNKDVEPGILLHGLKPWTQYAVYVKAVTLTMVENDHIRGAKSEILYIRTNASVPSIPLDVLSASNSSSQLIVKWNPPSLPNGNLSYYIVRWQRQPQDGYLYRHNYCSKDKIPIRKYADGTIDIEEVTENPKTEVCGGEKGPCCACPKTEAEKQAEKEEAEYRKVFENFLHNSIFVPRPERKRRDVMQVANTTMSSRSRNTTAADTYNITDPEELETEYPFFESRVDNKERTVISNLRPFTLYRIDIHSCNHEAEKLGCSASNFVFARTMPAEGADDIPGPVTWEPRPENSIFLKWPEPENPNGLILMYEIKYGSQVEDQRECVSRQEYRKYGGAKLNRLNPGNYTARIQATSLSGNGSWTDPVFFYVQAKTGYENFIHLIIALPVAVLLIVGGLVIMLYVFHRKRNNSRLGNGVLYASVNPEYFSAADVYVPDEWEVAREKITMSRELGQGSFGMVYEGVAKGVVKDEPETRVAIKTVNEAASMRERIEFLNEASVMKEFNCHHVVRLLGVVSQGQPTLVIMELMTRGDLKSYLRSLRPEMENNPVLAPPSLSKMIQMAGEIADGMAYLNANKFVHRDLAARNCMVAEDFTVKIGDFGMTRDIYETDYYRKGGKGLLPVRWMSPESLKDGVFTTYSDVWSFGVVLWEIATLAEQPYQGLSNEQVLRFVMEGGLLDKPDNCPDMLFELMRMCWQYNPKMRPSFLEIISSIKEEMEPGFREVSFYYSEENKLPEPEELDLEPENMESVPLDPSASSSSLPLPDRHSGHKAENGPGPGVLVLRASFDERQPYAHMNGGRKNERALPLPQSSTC", "assay": "Inhibition of insulin-like growth factor-1 receptor phosphorylation (immunofluorescence end point cell assay, R+ cells)", "format": "cell-based", "conditions": "R+ cells stimulated with 30 nM IGF1", "description": "This immunofluorescence end point cell assay measures the ability of a test compound to reduce the measured levels of IGF phosphorylation after IGF1 stimulation in R^+ cells. R^+ cells are derived by transfection of R^− mouse fibroblast cells with human IGF1R. R^+ cells are routinely cultured in DMEM growth medium (Gibco BRL, 41966) containing 2 mM L-Glutamine (Invitrogen Code no. 25030-024) and 10% (v/v) foetal bovine serum (FBS)) in a 5% CO2 air incubator at 37° C.\nTo undertake the assay, the R^+ cells are seeded at 5×10^3 cells/well in DMEM plus 1% foetal calf serum, 1% L-glutamine in 96-well black Packard View plates (PerkinElmer 6005182) and incubated at 37° C. (+5% CO2) in a humidified incubator. […]\nFollowing the compound treatment, the R^+ cells are stimulated with a final concentration of 30 nM IGF1 (Gropep IM001) for 20 minutes at 37° C. […] Additionally, in-house antibodies raised against phospho IGF1R were also used at a suitable titre determined for each batch. […]\nThe Green Fluorescent phospho IGF1R-associated signal in each well was measured using an Acumen Explorer HTS Reader (TTP Labtech Ltd., Cambridge). Phospho IGF1R-associated fluorescence emission can be detected at 530 nm following excitation at 488 nm. […] These fluorescent objects can be quantified and provide a measure of the phospho IGF1R levels in cells. […]"}, "[2]": {"biological_target": "T2, IGFR kinase (Homo sapiens, UniProt P08069)", "T2 construct": "purchased Millipore", "T2 sequence (P08069 31-1367)": "as above", "assay": "Enzyme assay (c), IGFR kinase, Caliper LabChip", "format": "biochemical", "conditions": "30 nM IGFR kinase, 6 uM ATP, 3 uM peptide mix; read-out: IGFR IC50"}}, "data": [{"compound": "COc1cc(N2CC(C)NC(C)C2)ccc1Nc1ncc(Cl)c(-c2cnc3ccccn23)n1", "note": "(centres unmarked) [5-chloro-N-[4-(3,5-dimethylpiperazin-1-yl)-2-methoxy-phenyl]-4-imidazo[1,2-a]pyridin-3-yl-pyrimidin-2-amine]", "values": [{"measurement": "IC50", "setting": "[1]", "result": 4, "unit": "nM"}]}, {"compound": "COc1cc(N2CCN(CCO)CC2)ccc1Nc1ncc(F)c(-c2cnc3ccccn23)n1", "note": "[Example 81, 2-[4-[4-[(5-fluoro-4-imidazo[1,2-a]pyridin-3-yl-pyrimidin-2-yl)amino]-3-methoxy-phenyl]piperazin-1-yl]ethanol]", "values": [{"measurement": "melting point", "result": "~ 171.3 °C"}, {"measurement": "IC50", "setting": "[2]", "result": 30, "unit": "nM"}]}, {"compound": "COc1cc(N2CC(C)NC(C)C2)ccc1Nc1ncc(Cl)c(-c2cnc3ccccn23)n1", "note": "(centres unmarked) [Example 3.6, 5-chloro-N-[4-(3,5-dimethylpiperazin-1-yl)-2-methoxy-phenyl]-4-imidazo[1,2-a]pyridin-3-yl-pyrimidin-2-amine]", "values": [{"measurement": "IC50", "setting": "[2]", "result": 20, "unit": "nM"}]}, {"compound": "COc1cc(N2CC[C@@H](N(C)C)C2)ccc1Nc1ncc(Cl)c(-c2cnc3ccccn23)n1", "note": "[Example 3.11, 5-chloro-N-[4-[(3R)-3-dimethylaminopyrrolidin-1-yl]-2-methoxy-phenyl]-4-imidazo[1,2-a]pyridin-3-yl-pyrimidin-2-amine]", "values": [{"measurement": "IC50", "setting": "[2]", "result": 69, "unit": "nM"}]}]}
